Test results as given in ChEMBL document CHEMBL1144950, “Structure--activity relationships of azasugar-based MMP/ADAM inhibitors” (Bioorg Med Chem Lett, 2003).

Assays:
Interstitial collagenase = molecular target: T1, Interstitial collagenase (Homo sapiens, UniProt P03956); assay: Inhibition of recombinant human matrix metalloprotease-1
T1 sequence (P03956 whole entry): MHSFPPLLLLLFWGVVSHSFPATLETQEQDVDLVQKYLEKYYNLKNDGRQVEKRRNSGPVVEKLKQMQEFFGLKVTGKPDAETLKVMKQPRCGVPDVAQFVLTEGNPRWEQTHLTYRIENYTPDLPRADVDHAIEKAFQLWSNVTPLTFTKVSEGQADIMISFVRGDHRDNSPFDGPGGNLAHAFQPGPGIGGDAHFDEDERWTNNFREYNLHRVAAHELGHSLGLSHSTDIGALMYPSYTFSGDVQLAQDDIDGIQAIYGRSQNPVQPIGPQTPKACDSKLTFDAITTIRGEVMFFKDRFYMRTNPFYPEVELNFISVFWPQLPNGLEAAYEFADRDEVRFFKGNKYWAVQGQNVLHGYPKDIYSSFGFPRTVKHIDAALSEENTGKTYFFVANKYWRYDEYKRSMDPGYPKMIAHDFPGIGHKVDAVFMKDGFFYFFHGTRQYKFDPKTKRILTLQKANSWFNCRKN

Stromelysin-1 = Stromelysin-1 (Homo sapiens, UniProt P08254); assay: Inhibition of recombinant human matrix metalloprotease-3
Sequence of Stromelysin-1 (P08254 whole entry, the tested form may be a part): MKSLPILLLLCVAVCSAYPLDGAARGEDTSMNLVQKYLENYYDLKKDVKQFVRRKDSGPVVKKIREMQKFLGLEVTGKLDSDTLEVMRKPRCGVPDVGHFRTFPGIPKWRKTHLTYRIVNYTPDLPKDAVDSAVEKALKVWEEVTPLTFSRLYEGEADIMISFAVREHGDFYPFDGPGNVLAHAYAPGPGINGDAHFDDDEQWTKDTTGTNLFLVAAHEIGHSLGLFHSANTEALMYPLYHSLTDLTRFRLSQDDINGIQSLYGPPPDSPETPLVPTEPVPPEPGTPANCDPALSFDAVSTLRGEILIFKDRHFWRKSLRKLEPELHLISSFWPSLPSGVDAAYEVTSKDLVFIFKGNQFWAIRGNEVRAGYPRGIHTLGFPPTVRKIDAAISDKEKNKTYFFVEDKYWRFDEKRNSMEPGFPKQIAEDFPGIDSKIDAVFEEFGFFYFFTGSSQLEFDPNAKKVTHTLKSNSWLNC

[1] = molecular target: T2, Disintegrin and metalloproteinase domain-containing protein 17 (Homo sapiens, UniProt P78536); assay: Inhibition of recombinant human TNF-alpha converting enzyme (TACE)
T2 sequence (P78536 whole entry, the tested form may be a part): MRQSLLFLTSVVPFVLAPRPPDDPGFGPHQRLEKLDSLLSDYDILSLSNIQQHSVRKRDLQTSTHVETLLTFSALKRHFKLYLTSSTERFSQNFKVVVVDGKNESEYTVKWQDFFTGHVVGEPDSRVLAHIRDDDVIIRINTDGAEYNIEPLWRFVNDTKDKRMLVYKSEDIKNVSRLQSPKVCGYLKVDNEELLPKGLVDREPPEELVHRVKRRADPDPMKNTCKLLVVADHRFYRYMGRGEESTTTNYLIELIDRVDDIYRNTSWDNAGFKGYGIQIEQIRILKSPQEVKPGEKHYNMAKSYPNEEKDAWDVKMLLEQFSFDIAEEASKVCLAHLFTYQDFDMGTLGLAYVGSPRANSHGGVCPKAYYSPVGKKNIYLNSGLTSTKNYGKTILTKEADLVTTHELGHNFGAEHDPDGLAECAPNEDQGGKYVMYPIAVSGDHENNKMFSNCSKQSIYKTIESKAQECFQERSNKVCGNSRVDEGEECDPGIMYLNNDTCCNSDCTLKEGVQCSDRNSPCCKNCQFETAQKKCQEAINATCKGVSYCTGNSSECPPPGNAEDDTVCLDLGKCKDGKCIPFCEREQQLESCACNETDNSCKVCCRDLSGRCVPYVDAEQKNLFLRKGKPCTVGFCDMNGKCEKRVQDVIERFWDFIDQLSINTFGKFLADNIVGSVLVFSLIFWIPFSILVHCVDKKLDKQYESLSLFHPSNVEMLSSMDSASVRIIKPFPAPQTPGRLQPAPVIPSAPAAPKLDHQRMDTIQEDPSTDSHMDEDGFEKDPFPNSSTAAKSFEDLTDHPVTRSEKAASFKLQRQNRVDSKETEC

[2] = molecular target: Matrix metalloproteinase-9 (Homo sapiens, UniProt P14780); assay: Inhibition of recombinant human matrix metalloprotease-9
Sequence of Matrix metalloproteinase-9 (P14780 whole entry, the tested form may be a part): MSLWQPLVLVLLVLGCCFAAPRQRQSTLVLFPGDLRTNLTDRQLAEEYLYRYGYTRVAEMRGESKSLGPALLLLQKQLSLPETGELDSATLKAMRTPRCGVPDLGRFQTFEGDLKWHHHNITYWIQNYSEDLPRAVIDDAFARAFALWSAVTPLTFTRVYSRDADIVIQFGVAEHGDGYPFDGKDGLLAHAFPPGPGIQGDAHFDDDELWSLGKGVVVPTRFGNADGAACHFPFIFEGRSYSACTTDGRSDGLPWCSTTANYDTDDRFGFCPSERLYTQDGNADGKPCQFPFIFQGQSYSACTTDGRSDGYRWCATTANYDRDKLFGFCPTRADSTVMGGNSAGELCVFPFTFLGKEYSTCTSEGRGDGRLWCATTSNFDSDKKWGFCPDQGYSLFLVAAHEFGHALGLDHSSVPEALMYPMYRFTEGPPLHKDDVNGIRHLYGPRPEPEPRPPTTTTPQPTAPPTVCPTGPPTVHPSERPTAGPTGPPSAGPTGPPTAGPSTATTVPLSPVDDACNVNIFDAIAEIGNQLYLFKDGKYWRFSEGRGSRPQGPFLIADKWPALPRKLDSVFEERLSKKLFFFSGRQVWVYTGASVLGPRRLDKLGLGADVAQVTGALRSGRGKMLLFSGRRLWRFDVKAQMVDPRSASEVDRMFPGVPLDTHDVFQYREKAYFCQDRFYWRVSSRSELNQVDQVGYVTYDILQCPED

[3] = molecular target: T2, Disintegrin and metalloproteinase domain-containing protein 17; assay: Inhibition of recombinant human TNF-alpha converting enzyme

Ki (Interstitial collagenase) [nM] | Ki [1] [nM] | Ki [3] [nM] | SMILES | Ki (Stromelysin-1) [nM] | Ki [2] [nM]
450 | 340 |  | COc1ccc(S(=O)(=O)N2C[C@@H](O)[C@H](O)[C@@H](O)[C@@H]2C(=O)NO)cc1 |  | 
 | 71 |  | COc1ccc(S(=O)(=O)N2C[C@H](O)[C@@H](O)[C@@H](O)[C@@H]2C(=O)NO)cc1 |  | 
> 850 | 510 |  | COc1ccc(S(=O)(=O)N2C[C@H](O)[C@H](O)[C@@H](O)[C@@H]2C(=O)NO)cc1 |  | 

Further lines, the compound ahead of its results:

SMILES | Ki (Interstitial collagenase) [nM] | Ki [1] [nM] | Ki [3] [nM] | Ki (Stromelysin-1) [nM] | Ki [2] [nM]
O=C(NO)[C@H]1[C@@H](O)[C@H](O)[C@@H](O)CN1S(=O)(=O)c1ccc(OC2CCCCC2)cc1 | 100 | 67 |  | 1.8 | 0.93
CCOCCOc1ccc(S(=O)(=O)N2C[C@H](O)[C@@H](O)[C@H](O)[C@@H]2C(=O)NO)cc1 | > 850 | 8.7 |  | 42 | 64
O=C(NO)[C@H]1[C@@H](O)[C@H](O)[C@@H](O)CN1S(=O)(=O)c1ccc(Oc2ccccc2)cc1 | 8 |  | 2.3 | 0.51 | 
COc1ccc(S(=O)(=O)N2C[C@H](O)[C@@H](O)[C@H](O)[C@@H]2C(=O)NO)cc1 | 25 | 12 |  |  | 
O=C(NO)[C@H]1[C@@H](O)[C@H](O)[C@@H](O)CN1S(=O)(=O)c1ccc(OCc2ccccc2)cc1 | 850 | 1.6 |  | 2.6 | 6.1
